Results reported in patent US6613317B1, “Volatile attractants for diabrotica species” (priority 1988, dated 2003).

Assays:
[1] = tested on: northern corn rootworm (NCR); assay: Sticky trap attraction in corn, phenylethanol analogues (Example 6); type: in vivo, Diabrotica barberi; details: for Mean number of NCR per trap (± standard deviation) / Mean number (control subtracted) of NCR per trap: four replicates; for Mean number of NCR per trap (± standard deviation): 24 hour
Description: (§1) Test chemicals (purchased from Aldrich Chemical Co.; Milwaukee, Wis.) were applied by capillary micropipettes to cotton dental wicks that were attached to tops of 1.0 liter cylindrical paper cartons covered with TangleTrap™, Grand Rapids, Mich. The trapping techniques used were as previously described in Example 1. Unless otherwise indicated, all treatments were made at a dosage of 100 mg or 100 μL of attractant per trap. Control traps had untreated wicks. Four replicates of treated and untreated traps were positioned randomly 10 meters apart on top of 1 m high posts along the edges of 25-50 ha. fields of hybrid corn (Zea mays), infested with adult NCR, SCR, and WCR beetles. Several experiments detailed in the Tables were made in a 0.4 ha plot of sweet corn (Illini X-tra Sweet).
(§2) Attraction of Diabrotica species adults of the sticky traps was measured by the mean number of beetles caught after 1 day (ca. 24 hours) exposure. The significance of the treatments was determined by analysis of variance and the individual means were separated by Duncan's multiple range test (Statistical Package for the Social Sciences, Nie, et al., 2nd. ed. McGraw-Hill, New York (1975). The data was logarithmically transformed for statistical analysis. Means and standard deviations are presented for the untransformed data. Significance levels were set at P=0.05 for all statistical analyses.

[2] = tested on: western corn rootworm (WCR); assay: as above; type: in vivo, Diabrotica virgifera virgifera; details: 100 mg per trap, four replicates, 24 hour; for Mean number of WCR per trap (± standard deviation), column WCW: Table 17
Description: as §1, §2

[3] = day 1 after single 100 mg dosage on cotton wick
[4] = day 2 after single 100 mg dosage on cotton wick
[5] = day 3 after single 100 mg dosage on cotton wick
[6] = day 4 after single 100 mg dosage on cotton wick
[7] = day 5 after single 100 mg dosage on cotton wick
[8] = day 6 after single 100 mg dosage on cotton wick
[9] = day 7 after single 100 mg dosage on cotton wick
[10] = day 8 after single 100 mg dosage on cotton wick
[11] = day 11 after single 100 mg dosage on cotton wick

SMILES	Mean number of NCR per trap (± standard deviation) ([1]; Table 17, 100 mg per trap)	Mean number of WCR per trap (± standard deviation), column WCW [2] [a per trap]	Mean number of NCR per trap (± standard deviation) ([1]; Table 16, 100 mg per trap)	Mean number of WCR per trap (±standard deviation) ([2]; Table 16) [a per trap]	Mean number of NCR per trap (± standard deviation) ([1]; Table 15, 100 mg per trap)	Mean number of WCR per trap (±standard deviation) ([2]; Table 15) [a per trap]	further results
OCCCc1ccccc1	36.2 ± 12.2c per trap	4.0 ± 2.9					Mean number (control subtracted) of NCR per trap [1, 3]: 76.5 per trap; Mean number (control subtracted) of NCR per trap [1, 4]: 115.3 per trap; Mean number (control subtracted) of NCR per trap [1, 5]: 38.8 per trap; Mean number (control subtracted) of NCR per trap [1, 6]: 25.0 per trap; Mean number (control subtracted) of NCR per trap [1, 7]: 41.8 per trap; Mean number (control subtracted) of NCR per trap [1, 8]: 10.5 per trap; Mean number (control subtracted) of NCR per trap [1, 9]: 10.7 per trap; Mean number (control subtracted) of NCR per trap [1, 10]: 29.5 per trap; Mean number (control subtracted) of NCR per trap [1, 11]: 4.5 per trap
COc1ccccc1CCO [2-methoxyphenylethanol]			13.5 ± 9.3a per trap	6.0 ± 5.1			
OCCc1ccc(Cl)cc1 [4-chlorophenylethanol]					30.0 ± 7.4b per trap	13.7 ± 3.9	
OCCc1ccc(F)cc1 [4-fluorophenylethanol]					38.0 ± 6.2b per trap	14.0 ± 12.3	
COc1cccc(CCO)c1 [3-methoxyphenylethanol]			7.2 ± 3.4a per trap	3.7 ± 2.1			
O=[N+]([O-])c1ccc(CCO)cc1 [4-nitrophenylethanol]					7.7 ± 2.7a per trap	7.9 ± 5.1	
Nc1ccc(CCO)cc1 [4-aminophenylethanol]					10.5 ± 2.1a per trap	8.5 ± 3.4	
COc1ccc(CCO)cc1 [4-methoxyphenylethanol]	56.7 ± 7.5c per trap	6.0 ± 4.2	60.3 ± 26.8b* per trap	3.5 ± 2.1	187.7 ± 62.5d* per trap	5.7 ± 2.8	lowest level attractive to NCR ([1]; Table 18): ≤ 0.1 mg; Mean number of NCR per trap (± standard deviation) ([1]; Table 18, 0.1 mg): 16.2 ± 1.2b per trap; Mean number of NCR per trap (± standard deviation) ([1]; Table 18, 0.3 mg): 32.7 ± 9.4c per trap; Mean number of NCR per trap (± standard deviation) ([1]; Table 18, 1 mg): 41.0 ± 23.4c per trap; Mean number of NCR per trap (± standard deviation) ([1]; Table 18, 3 mg): 72.0 ± 10.8d per trap; Mean number (control subtracted) of NCR per trap [1, 3]: 134.5 per trap; Mean number (control subtracted) of NCR per trap [1, 4]: 231.8 per trap; Mean number (control subtracted) of NCR per trap [1, 5]: 93.1 per trap; Mean number (control subtracted) of NCR per trap [1, 6]: 51.5 per trap; Mean number (control subtracted) of NCR per trap [1, 7]: 128.9 per trap; Mean number (control subtracted) of NCR per trap [1, 8]: 49.2 per trap; Mean number (control subtracted) of NCR per trap [1, 9]: 76.7 per trap; Mean number (control subtracted) of NCR per trap [1, 10]: 99.0 per trap; Mean number (control subtracted) of NCR per trap [1, 11]: 64.8 per trap
COc1ccc(CCCO)cc1 [4-methoxyphenylpropanol]	15.5 ± 6.2b per trap	3.2 ± 2.2					
Cc1ccc(CCO)cc1 [4-methylphenylethanol]					89.2 ± 7.8c per trap	12.2 ± 5.6	
